≈ marks a conversion by molar mass, not a printed value. Read-outs that look alike come from different tables or passages of the source.
How the values were obtained:
Test in all cases: In vitro antibacterial activity, agar plate dilution method (MIC)
Ps.maltophilia GN 12873 = format: cell-based, Pseudomonas maltophilia; conditions: Stenotrophomonas maltophilia, read-out: Minimum Inhibitory Concentration (MIC: µg/ml)
Protocol: (§1) The in vitro antibacterial activities of the compounds of the present invention against various microorganisms, were measured by the following agar plate dilution method. One platinum loopfull of each test microorganism incubated overnight in Mueller Hinton broth, was inoculated to Mueller Hinton agar (inoculum size: l0⁶ CFU/ml). Such culture media containing various antibiotics in various concentrations were prepared. After incubation at 37°C for l6 hours, the minimum inhibitory concentrations (MIC: µg/ml) were measured. As comparative compounds, Cefotaxime, Ceftazidime and the compounds of Reference Examples l to 4 were employed.

Ps.aeruginosa AKR17 = format: cell-based; conditions: Pseudomonas aeruginosa; Ps.aeruginosa AKR17; Mueller Hinton agar, inoculum 10⁶ CFU/ml, 37°C, 16 hours; read-out: Minimum Inhibitory Concentration (MIC: µg/ml)
Protocol: as §1

A.calcoaceticus No. 4 = format: cell-based; conditions: Acinetobacter calcoaceticus, read-out: Minimum Inhibitory Concentration (MIC: µg/ml)
Protocol: as §1

M.luteus ATCC9341 = format: cell-based; conditions: Micrococcus luteus, read-out: Minimum Inhibitory Concentration (MIC: µg/ml)
Protocol: as §1

K.pneumoniae PCI-602 = format: cell-based; conditions: Klebsiella pneumoniae, read-out: Minimum Inhibitory Concentration (MIC: µg/ml)
Protocol: as §1

S.aureus BB5703 = format: cell-based; conditions: Staphylococcus aureus, read-out: Minimum Inhibitory Concentration (MIC: µg/ml)
Protocol: as §1

K.pneumoniae No. 42 = format: cell-based; conditions: Klebsiella pneumoniae, read-out: Minimum Inhibitory Concentration (MIC: µg/ml)
Protocol: as §1

P.vulgaris HX-19 = format: cell-based; conditions: Proteus vulgaris, read-out: Minimum Inhibitory Concentration (MIC: µg/ml)
Protocol: as §1

E.coli CSH(RE45) = format: cell-based; conditions: Escherichia coli, 16 h, read-out: Minimum Inhibitory Concentration (MIC: µg/ml)
Protocol: as §1

E.coli CSH2 (RK1) = format: cell-based; conditions: Escherichia coli, 16 h, read-out: Minimum Inhibitory Concentration (MIC: µg/ml)
Protocol: as §1

S.aureus 209P NIHJ-JC1 = format: cell-based; conditions: Staphylococcus aureus, read-out: Minimum Inhibitory Concentration (MIC: µg/ml)
Protocol: as §1

S.aureus JS1 = format: cell-based; conditions: Staphylococcus aureus, read-out: Minimum Inhibitory Concentration (MIC: µg/ml)
Protocol: as §1

S.marcescens No. 16-2 = format: cell-based; conditions: Serratia marcescens, read-out: Minimum Inhibitory Concentration (MIC: µg/ml)
Protocol: as §1

Ps.aeruginosa AK 109 = format: cell-based; conditions: Pseudomonas aeruginosa, read-out: Minimum Inhibitory Concentration (MIC: µg/ml)
Protocol: as §1

C.freundii GN346 = format: cell-based; conditions: Citrobacter freundii, read-out: Minimum Inhibitory Concentration (MIC: µg/ml)
Protocol: as §1

E.cloacae 963 = format: cell-based; conditions: read-out: Minimum Inhibitory Concentration (MIC: µg/ml)
Protocol: as §1

S.marcescens IAM 1184 = format: cell-based; conditions: Serratia marcescens, read-out: Minimum Inhibitory Concentration (MIC: µg/ml)
Protocol: as §1

M.morganii GN5407 = format: cell-based; conditions: Morganella morganii, read-out: Minimum Inhibitory Concentration (MIC: µg/ml)
Protocol: as §1

S.epidermidis IAM12012 = format: cell-based; conditions: Staphylococcus epidermidis, read-out: Minimum Inhibitory Concentration (MIC: µg/ml)
Protocol: as §1

Ps.aeruginosa IFO3445 = format: cell-based; conditions: Pseudomonas aeruginosa; Ps.aeruginosa IFO3445; Mueller Hinton agar, inoculum 10⁶ CFU/ml, 37°C, 16 hours; read-out: Minimum Inhibitory Concentration (MIC: µg/ml)
Protocol: as §1

K.oxytoca GN10650 = format: cell-based; conditions: Klebsiella oxytoca, read-out: Minimum Inhibitory Concentration (MIC: µg/ml)
Protocol: as §1

E.cloacae Nek 39 = format: cell-based; conditions: Enterobacter cloacae, read-out: Minimum Inhibitory Concentration (MIC: µg/ml)
Protocol: as §1

P.vulgaris No. 33 = format: cell-based; conditions: Proteus vulgaris, read-out: Minimum Inhibitory Concentration (MIC: µg/ml)
Protocol: as §1

E.coli GN5482 = format: cell-based; conditions: Escherichia coli, read-out: Minimum Inhibitory Concentration (MIC: µg/ml)
Protocol: as §1

E.coli NIHJ JC2 = format: cell-based; conditions: Escherichia coli, read-out: Minimum Inhibitory Concentration (MIC: µg/ml)
Protocol: as §1

C.freundii GN346/16 = format: cell-based; conditions: Citrobacter freundii, read-out: Minimum Inhibitory Concentration (MIC: µg/ml)
Protocol: as §1

Ps.cepacia 23 = format: cell-based, Pseudomonas cepacia; conditions: read-out: Minimum Inhibitory Concentration (MIC: µg/ml)
Protocol: as §1

CO/N=C(\C(=O)N[C@@H]1C(=O)N2C(C(=O)O)=C(COC(C)=O)CS[C@H]12)c1csc(N)n1 [Cefotaxime, reference compound]
MIC (Ps.maltophilia GN 12873; GN12873, Ps.maltophilia GN 12873 (β-Lactamase-producing strain), Mueller Hinton agar, inoculum 10⁶ CFU/ml, 37°C, 16 hours): > 100 µg/mL | MIC (Ps.aeruginosa AKR17): > 100 µg/mL | MIC (A.calcoaceticus No. 4; A.calcoaceticus No. 4, Mueller Hinton agar, inoculum 10⁶ CFU/ml, 37°C, 16 hours): 25 µg/mL (≈ 54.9 µM) | MIC (M.luteus ATCC9341; M.luteus ATCC9341, Mueller Hinton agar, inoculum 10⁶ CFU/ml, 37°C, 16 hours): 0.05 µg/mL (≈ 0.11 µM) | MIC (K.pneumoniae PCI-602; PCI602, K.pneumoniae PCI-602, Mueller Hinton agar, inoculum 10⁶ CFU/ml, 37°C, 16 hours): < 0.006 µg/mL | MIC (S.aureus BB5703; S.aureus BB5703, Mueller Hinton agar, inoculum 10⁶ CFU/ml, 37°C, 16 hours): 3.12 µg/mL (≈ 6.85 µM) | MIC (K.pneumoniae No. 42; K.pneumoniae No. 42 (β-Lactamase-producing strain), Mueller Hinton agar, inoculum 10⁶ CFU/ml, 37°C, 16 hours): 0.05 µg/mL (≈ 0.11 µM) | MIC (P.vulgaris HX-19; HX19, P.vulgaris HX-19, Mueller Hinton agar, inoculum 10⁶ CFU/ml, 37°C, 16 hours): < 0.006 µg/mL | MIC (E.coli CSH(RE45)): 0.2 µg/mL (≈ 0.439 µM) | MIC (E.coli CSH2 (RK1)): 0.05 µg/mL (≈ 0.11 µM) | MIC (S.aureus 209P NIHJ-JC1; S.aureus 209P NIHJ-JC1, Mueller Hinton agar, inoculum 10⁶ CFU/ml, 37°C, 16 hours): 1.56 µg/mL (≈ 3.43 µM) | MIC (S.aureus JS1; S.aureus JS1 (β-Lactamase-producing strain), Mueller Hinton agar, inoculum 10⁶ CFU/ml, 37°C, 16 hours): 25 µg/mL (≈ 54.9 µM) | MIC (S.marcescens No. 16-2; NO.162, S.marcescens No. 16-2 (β-Lactamase-producing strain), Mueller Hinton agar, inoculum 10⁶ CFU/ml, 37°C, 16 hours): 25 µg/mL (≈ 54.9 µM) | MIC (Ps.aeruginosa AK 109; AK109, Ps.aeruginosa AK 109, Mueller Hinton agar, inoculum 10⁶ CFU/ml, 37°C, 16 hours): 12.5 µg/mL (≈ 27.4 µM) | MIC (C.freundii GN346; C.freundii GN346 (β-Lactamase-producing strain), Mueller Hinton agar, inoculum 10⁶ CFU/ml, 37°C, 16 hours): 25 µg/mL (≈ 54.9 µM) | MIC (E.cloacae 963; Enterobacter cloacae, E.cloacae 963, Mueller Hinton agar, inoculum 10⁶ CFU/ml, 37°C, 16 hours): 0.1 µg/mL (≈ 0.22 µM) | MIC (S.marcescens IAM 1184; IAM1184, S.marcescens IAM 1184, Mueller Hinton agar, inoculum 10⁶ CFU/ml, 37°C, 16 hours): 0.05 µg/mL (≈ 0.11 µM) | MIC (M.morganii GN5407; M.morganii GN5407 (β-Lactamase-producing strain), Mueller Hinton agar, inoculum 10⁶ CFU/ml, 37°C, 16 hours): 0.05 µg/mL (≈ 0.11 µM) | MIC (S.epidermidis IAM12012; S.epidermidis IAM12012, Mueller Hinton agar, inoculum 10⁶ CFU/ml, 37°C, 16 hours): 0.39 µg/mL (≈ 0.856 µM) | MIC (Ps.aeruginosa IFO3445): 3.12 µg/mL (≈ 6.85 µM) | MIC (K.oxytoca GN10650; K.oxytoca GN10650 (β-Lactamase-producing strain), Mueller Hinton agar, inoculum 10⁶ CFU/ml, 37°C, 16 hours): 0.78 µg/mL (≈ 1.71 µM) | MIC (E.cloacae Nek 39; NEK39, E.cloacae Nek 39 (β-Lactamase-producing strain), Mueller Hinton agar, inoculum 10⁶ CFU/ml, 37°C, 16 hours): 3.12 µg/mL (≈ 6.85 µM) | MIC (P.vulgaris No. 33; P.vulgaris No. 33 (β-Lactamase-producing strain), Mueller Hinton agar, inoculum 10⁶ CFU/ml, 37°C, 16 hours): 0.025 µg/mL (≈ 0.0549 µM) | MIC (E.coli GN5482; E.coli GN5482 (β-Lactamase-producing strain), Mueller Hinton agar, inoculum 10⁶ CFU/ml, 37°C, 16 hours): 0.39 µg/mL (≈ 0.856 µM) | MIC (E.coli NIHJ JC2; NIHJJC2, E.coli NIHJ JC2, Mueller Hinton agar, inoculum 10⁶ CFU/ml, 37°C, 16 hours): 0.05 µg/mL (≈ 0.11 µM) | MIC (C.freundii GN346/16; C.freundii GN346/16, Mueller Hinton agar, inoculum 10⁶ CFU/ml, 37°C, 16 hours): 0.1 µg/mL (≈ 0.22 µM) | MIC (Ps.cepacia 23; Burkholderia cepacia, Ps.cepacia 23, Mueller Hinton agar, inoculum 10⁶ CFU/ml, 37°C, 16 hours): 6.25 µg/mL (≈ 13.7 µM)

CC(C)(O/N=C(\C(=O)N[C@@H]1C(=O)N2C(C(=O)[O-])=C(C[n+]3ccccc3)CS[C@H]12)c1csc(N)n1)C(=O)O [Ceftazidime, reference compound]
MIC (Ps.maltophilia GN 12873; GN12873, 16 h): 100 µg/mL (≈ 183 µM) | MIC (Ps.aeruginosa AKR17): > 100 µg/mL | MIC (A.calcoaceticus No. 4; NO.4, 16 h): 6.25 µg/mL (≈ 11.4 µM) | MIC (M.luteus ATCC9341; ATCC9341, 16 h): 1.56 µg/mL (≈ 2.85 µM) | MIC (K.pneumoniae PCI-602; PCI602, 16 h): 0.125 µg/mL (≈ 0.229 µM) | MIC (S.aureus BB5703; BB5703, 16 h): 25 µg/mL (≈ 45.7 µM) | MIC (K.pneumoniae No. 42; NO.42, 16 h): 0.39 µg/mL (≈ 0.714 µM) | MIC (P.vulgaris HX-19; HX19, 16 h): 0.025 µg/mL (≈ 0.0457 µM) | MIC (E.coli CSH(RE45)): 0.1 µg/mL (≈ 0.183 µM) | MIC (E.coli CSH2 (RK1)): 0.1 µg/mL (≈ 0.183 µM) | MIC (S.aureus 209P NIHJ-JC1; 16 h): 6.25 µg/mL (≈ 11.4 µM) | MIC (S.aureus JS1; JS1, 16 h): 50 µg/mL (≈ 91.5 µM) | MIC (S.marcescens No. 16-2; NO.162, 16 h): 1.56 µg/mL (≈ 2.85 µM) | MIC (Ps.aeruginosa AK 109; AK109, 16 h): 1.56 µg/mL (≈ 2.85 µM) | MIC (C.freundii GN346; GN346, 16 h): 25 µg/mL (≈ 45.7 µM) | MIC (E.cloacae 963; Enterobacter cloacae, 963, 16 h): 0.2 µg/mL (≈ 0.366 µM) | MIC (S.marcescens IAM 1184; IAM1184, 16 h): 0.025 µg/mL (≈ 0.0457 µM) | MIC (M.morganii GN5407; GN5407, 16 h): 0.1 µg/mL (≈ 0.183 µM) | MIC (S.epidermidis IAM12012; IAM12012, 16 h): 3.12 µg/mL (≈ 5.71 µM) | MIC (Ps.aeruginosa IFO3445): 0.39 µg/mL (≈ 0.714 µM) | MIC (K.oxytoca GN10650; GN10650, 16 h): 0.2 µg/mL (≈ 0.366 µM) | MIC (E.cloacae Nek 39; NEK39, 16 h): 1.56 µg/mL (≈ 2.85 µM) | MIC (P.vulgaris No. 33; NO.33, 16 h): 0.05 µg/mL (≈ 0.0915 µM) | MIC (E.coli GN5482; GN5482, 16 h): 3.12 µg/mL (≈ 5.71 µM) | MIC (E.coli NIHJ JC2; NIHJJC2, 16 h): 0.2 µg/mL (≈ 0.366 µM) | MIC (C.freundii GN346/16; GN346, 16 h): 0.2 µg/mL (≈ 0.366 µM) | MIC (Ps.cepacia 23; Burkholderia cepacia, 23, 16 h): 1.56 µg/mL (≈ 2.85 µM)

Reference: patent publication EP0238060B1, “Cephalosporin derivatives, processes for their preparation and antibacterial agents” (Banyu Pharmaceutical Co., Ltd., priority 1986, dated 1987)
